Test results taken from patent US20250228832A1, “METHODS FOR TREATING DISORDERS AMELIORATED BY MUSCARINIC RECEPTOR ACTIVATION” (KARUNA THERAPEUTICS, INC., priority 2022, published 2025).
Like-named read-outs stand apart in the source and are kept apart here.

What was measured:
[1] = target: T1, human M4 receptor (Homo sapiens, UniProt P08173); experiment: SPA GTP (GTPgS) binding curve shift assay, M4; type: biochemical
T1 construct: expressed in transfected cells
T1 sequence (P08173 1-479): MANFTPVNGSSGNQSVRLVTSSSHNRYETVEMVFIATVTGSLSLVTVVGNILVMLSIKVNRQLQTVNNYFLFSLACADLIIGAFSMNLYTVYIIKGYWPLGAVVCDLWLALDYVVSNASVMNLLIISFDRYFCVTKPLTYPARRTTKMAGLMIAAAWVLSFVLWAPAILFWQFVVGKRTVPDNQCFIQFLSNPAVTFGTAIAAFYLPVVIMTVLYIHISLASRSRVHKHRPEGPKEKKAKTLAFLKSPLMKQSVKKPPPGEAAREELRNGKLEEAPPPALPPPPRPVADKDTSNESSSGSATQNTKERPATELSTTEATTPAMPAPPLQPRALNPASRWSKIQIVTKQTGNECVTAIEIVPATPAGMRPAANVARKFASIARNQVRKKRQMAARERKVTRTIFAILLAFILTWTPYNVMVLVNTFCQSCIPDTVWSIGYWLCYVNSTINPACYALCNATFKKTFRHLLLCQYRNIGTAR
Protocol: Membranes were prepared for GTPgS binding assays from CHO-K1 cells stably expressing human M2 or human M4 receptors. Cells were grown in 5-layer cell culture flasks. Cells were washed with 50 mL of PBS and then dissociated with 0.05% trypsin. Dissociated cells were then collected by centrifugation at 650×g for 8 min at 4° C. Pellets were rewashed in PBS by centrifugation and resuspended in 30 mL of 20 mM HEPES, 10 mM EDTA, pH 7.4. After sitting on ice for 30 min, membranes were collected by centrifugation at 50000×g for 15 min at 4° C., resuspended in 30 mL of 20 mM HEPES, 0.1 mM EDTA, pH 7.4, and collected again by centrifugation. Pellets were then washed twice by centrifugation in 30 mL of 20 mM HEPES, pH 7.4, and stored at −80° C. until the day of the assay. On the day of the assay, pellets were thawed on ice and resuspended in 1 mL of 20 mM HEPES, pH 7.4, 10 mM MgCl2, and 100 mM NaCl using Dounce homogenization.
According to Promega guidelines, membrane protein concentration was determined by BCA protein assay (Promega, Madison, WI).
On the day of the assay, serial dilutions of test PAM compounds were brought up in assay buffer (20 mM HEPES, 10 mM MgCl2; see Table 4 for NaCl concentrations) at four times the final assay concentration. […] of membrane homogenates (containing […] of membrane protein) were prepared in assay buffer supplemented with GDP at 4× final assay concentration (see Table 4 for GDP concentrations) and dispensed into 96 well polypropylene, U-bottom Greiner plates. Membrane plates were incubated for 10 min at room temperature with gentle shaking. Then, 25 μL of test compounds were added to assay plates. Plates were then incubated, with shaking, for an additional 10-15 min. Then, 25 μL of diluted agonists serially diluted in assay buffer at 4× final assay concentration was added to assay plates. Plates were then incubated, with shaking, for an additional 10-15 min. Next, […] of 0.4 nM ^35S-GTP (Perkin Elmer, Waltham, MA) in assay buffer was added to assay mixtures. The binding reaction was left on the shaker for 1 h at room temperature. Membranes in assay reactions were then transferred to GF/C filter plates (UniFilter, Perkin Elmer) and washed three times using FilterMate Harvester (Perkin Elmer) with cold assay buffer containing no GDP. Filter plates were then dried at 40° C. overnight, and […] of Beta Plate Scintillation liquid was added. Plates were top and bottom sealed before being read on the TopCount scintillation counter (Perkin Elmer, Waltham, MA).
(§1) Raw data for all assays was transmitted directly from plate readers into the Beacon database for processing. All assay plates contained positive and negative control wells for data normalization and scaling. […] All control wells contained DMSO at a final assay concentration that matched the test compound wells.
For GTPgS assays, the negative control wells were defined as 0% response. The highest response in a plate was scaled to 1, representing 100% response. Data from test compound wells was scaled to these controls and are reported as % control values. This was done to allow for subsequent GraphPad cooperativity analysis, setting the maximal response at no more than 1.

[2] = target: T2, human M5 receptor (Homo sapiens, UniProt P08912); experiment: HTRF IP-One curve shift assay, M5; type: cell-based; details: M5
T2 construct: expressed in transfected cells
T2 sequence (P08912 1-532): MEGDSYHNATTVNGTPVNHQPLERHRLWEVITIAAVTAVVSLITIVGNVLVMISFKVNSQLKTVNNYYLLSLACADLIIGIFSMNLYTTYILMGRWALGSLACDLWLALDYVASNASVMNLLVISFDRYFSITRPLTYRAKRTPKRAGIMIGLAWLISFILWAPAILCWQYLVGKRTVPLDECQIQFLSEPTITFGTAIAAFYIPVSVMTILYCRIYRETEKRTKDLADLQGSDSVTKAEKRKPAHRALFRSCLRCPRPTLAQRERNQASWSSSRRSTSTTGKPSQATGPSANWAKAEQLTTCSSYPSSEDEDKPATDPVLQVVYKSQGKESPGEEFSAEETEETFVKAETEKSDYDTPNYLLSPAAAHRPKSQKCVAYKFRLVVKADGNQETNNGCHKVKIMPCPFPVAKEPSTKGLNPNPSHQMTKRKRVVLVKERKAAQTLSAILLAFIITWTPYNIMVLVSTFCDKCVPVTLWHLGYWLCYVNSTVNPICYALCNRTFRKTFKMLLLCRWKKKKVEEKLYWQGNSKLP
Protocol: HTRF IP-One assays were performed using frozen cell aliquots prepared from CHO-K1 cell lines stably expressing human M1, M3, or M5 receptors. Cells were frozen following typical cell freezing protocols. […] Dissociated cells were quenched in full media and collected by centrifugation at 290×g for 5 min. […] 1 mL aliquots of cells were dispensed into cryovial tubes and frozen in a controlled rate cryo-freezer container at −80° C. Cells were stored at −80° C. (or in liquid nitrogen if stored for at least six months) until the day of the assay.
On the day before the assay, frozen cells were rapidly thawed in a 37° C. water bath, brought up in 20 mL of full media, and collected via centrifugation at 290×g for 5 min. […] Next, […] of cells (10,000 cells/well) were dispensed into 384-well coming plates in triplicate. Cells were incubated overnight in a 37° C., 5% CO2 cell incubator.
Then, 2 μL of test compounds were added to the cells and incubated for 10 min at 37° C. in a 5% CO2 cell incubator. Next, 2 μL of diluted agonists serially diluted in assay buffer at 7× final assay concentration was added to assay plates. Finally, assay plates were incubated for two hours at 37° C. in a 5% CO2 cell incubator.
Six μL of IP-1 detection reagents (IP-One Gq HTRF kit, Cisbio Cat #62IPAPEJ) were dispensed to the cells. First, the plates were incubated for two hours at room temperature (IP-One detection reagents were made according to Cisbio protocol). Then, plates were read on an Envision plate reader following the Cisbio guidelines.
as §1
Counts from the standard curve wells were used to generate a sigmoidal standard curve, which was used to transform the raw counts from each well on the plate (scaling control wells and compound wells) into a pmol/well IP1 value.

CC(=O)OCC[N+](C)(C)C [acetylcholine, reference compound]
Emax ([1]; MK-4710 concentration 0 nM): 67.6%
Emax at […] ([1]; MK-4710 concentration […]): 76.8%
Emax ([2]; Emraclidine concentration 41.2 nM, read-out: Emax): 77.7%
Emax at […] ([2]; Emraclidine concentration […], read-out: Emax): 72.3%
Emax ([2]; MK-4710 concentration 0 nM): 71.2%
Emax ([2]; MK-4710 concentration 1110 nM, read-out: Emax): 78.1%
Emax ([2]; MK-4710 concentration 3330 nM, read-out: Emax): 78.8%
Emax at […] ([2]; MK-4710 concentration […], read-out: Emax): 77.7%
